Measured values published in article PMC11990191, “Pharmacochemical Studies of Synthesized Coumarin–Isoxazole–Pyridine Hybrids” (Molecules, 2025).

Target: T1, soybean lipoxygenase (sLOX) (Glycine max, UniProt P08170)
T1 construct: gene LOX1.1
T1 sequence (P08170 1-839): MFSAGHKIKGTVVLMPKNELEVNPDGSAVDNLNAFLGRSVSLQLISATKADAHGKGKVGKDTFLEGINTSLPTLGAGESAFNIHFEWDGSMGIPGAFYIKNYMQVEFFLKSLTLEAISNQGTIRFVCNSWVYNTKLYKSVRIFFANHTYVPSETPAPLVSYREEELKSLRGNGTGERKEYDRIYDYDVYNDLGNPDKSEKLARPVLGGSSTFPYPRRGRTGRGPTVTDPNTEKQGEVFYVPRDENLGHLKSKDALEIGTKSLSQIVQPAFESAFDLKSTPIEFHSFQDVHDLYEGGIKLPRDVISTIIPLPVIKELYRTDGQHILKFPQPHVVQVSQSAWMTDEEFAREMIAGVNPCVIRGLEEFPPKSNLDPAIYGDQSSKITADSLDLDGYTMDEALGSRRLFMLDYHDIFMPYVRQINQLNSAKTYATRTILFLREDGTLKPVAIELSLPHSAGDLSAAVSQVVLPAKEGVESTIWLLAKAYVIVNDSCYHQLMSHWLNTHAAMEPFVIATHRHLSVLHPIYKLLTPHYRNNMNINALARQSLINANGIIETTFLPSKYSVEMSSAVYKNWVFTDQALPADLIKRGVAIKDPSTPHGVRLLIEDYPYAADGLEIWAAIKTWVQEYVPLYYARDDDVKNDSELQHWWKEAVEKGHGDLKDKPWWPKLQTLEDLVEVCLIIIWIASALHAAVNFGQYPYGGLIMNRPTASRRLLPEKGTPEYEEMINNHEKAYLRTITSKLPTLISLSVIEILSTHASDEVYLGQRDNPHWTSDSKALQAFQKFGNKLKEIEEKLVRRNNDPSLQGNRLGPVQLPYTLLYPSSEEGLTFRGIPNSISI
Assay: UV absorbance enzyme assay at […] nm, sodium linoleate substrate, pH […]
Format: biochemical
Settings: read-out: LOX(%)/ IC50

SMILES | IC50 [µM]
O=c1ccc2ccc(OCc3cc(-c4cccnc4)no3)cc2o1 [7a, 7-((3-(Pyridin-3-yl)isoxazol-5-yl)methoxy)-2H-chromen-2-one] | 10
O=c1cc(OCc2cc(-c3ccncc3)no2)c2ccccc2o1 [13a, 4-((3-(Pyridin-4-yl)isoxazol-5-yl)methoxy)-2H-chromen-2-one] | 5
